Measured values as given in patent US9518089B2, “Metallothionein-derived peptide fragments” (University of Tasmania, priority 2006, dated 2016).

How the values were obtained:
[1] = system: cerebellar granule neurons (CGN); test: TUNEL assay (DNA fragmentation) in CGN; type: cell-based, rat; details: 24 h after apoptosis induction; FIG. 10
Experimental: Primary cultures of seven days old rats were plated, cultured and induced to under-go apoptosis as described above for neuronal survival, however cells were fixated 24 hour after apoptosis induction. By using the Fluorescien FragEL DNA fragmentation Kit, which label free DNA ends with a green fluorescent colour, the amount of neurons undergoing DNA fragmentation can be estimated and compared to the total amount of cells, which are stained with propidium idodide. Results (see FIG. 10) from at least four independent experiments are expressed as percentage TUNEL positive cells±SEM, with the negative control set at 100%. Statistics are performed with a Student's paired t-test. *=p<0.05, **=p<0.01, ***=p<0.001.

[2] = system: focal brain injury on the right fronto-parietal cortex; test: Neuronal rescue and tissue repair in vivo after focal brain injury (dry-ice lesion); parameters: species or system rat; details: rats, tetrameric form of peptide s.c. 10 mg/kg/injection, FIG. 11
Experimental: A focal brain injury on the right fronto-parietal cortex was made by applying a piece of dry-ice (−78° C.) directly onto the skull for 30 seconds in mice and 60 seconds in rats, as previously described in detail (Penkowa and Moos, 1995). The rats were treated s.c. with the tetrameric form of the MTAcc peptide ([…]) one day before lesion and one and two days after the lesion (10 mg/kg bodyweight/injection). Three days after the lesion animals were fixed by transcardial perfusion with paraformaldehyde. Histochemistry and immunohistochemistry (IHC) were performed on sections cut from organs taken from fixated animals. For immunohistochemical investigation, brains were dissected and postfixed in Zamboni's fixative for 2-3 hours, dehydraded in graded alcohol followed by xylol and subsequently embedded in paraffin before being cut in 3 μm frontal sections throughout the entire area of the lesion. Terminal deoxynucleotidyl transferase (TdT)-mediated deoxyuridine triphosphate (dUTP)-biotin nick end labeling (TUNEL) was performed using the Fragment End Labeling (FragEL™) Detection Kit (Calbiochem, USA, code QIA33). The FragEL kit contains all the materials used below and each step was performed according to the manufacturer's recommendations. Sections were also immunostained for markers of oxidative stress such as peroxynitrite-induced nitration of tyrosine residues (NITT) and malondialdehyde (MDA) andfor markers of inflammation such as interleukin (IL)-1, IL-12 and tumor necrosis factor (TNF) α, as described by Penkowa et al. (2000).

MT2 protein (from Sigma) = test: Surface plasmon resonance (SPR) analysis of peptide binding to immobilized MT2; details: for Kd / ka / kd: 25° C., PBS pH 7.4, immobilized MT2; for binding to MT2 protein immobilized on a sensor chip: difference to blank chip
Experimental: FIG. 12 Binding of the MTAcc peptide to MT studied by means of SPR analysis. Approximately 2000 resonance units (RU) of the MT2 protein (Sigma) were immobilized on the sensor chip. The binding is given as the response difference between the binding to the sensor chip with the immobilized MT2 and a blank sensor chip (unspecific binding). The peptide was injected into the sensor chip at a concentration of 0.87 μM. The experiment was repeated four times. FIG. 13 Binding of the MTBcc peptide to MT studied by means of SPR analysis. Approximately 2000 resonance units (RU) of the MT2 protein (Sigma) were immobilized on the sensor chip. The binding is given as the response difference between the binding to the sensor chip with the immobilized MT2 and a blank sensor chip (unspecific binding). The peptide was injected into the sensor chip at a concentration of 8.32 μM. The experiment was repeated four times. FIG. 14 Binding of the MTAn peptide to MT studied by means of SPR analysis. Approximately 2000 resonance units (RU) of the MT2 protein (Sigma) were immobilized on the sensor chip. The binding is given as the response difference between the binding to the sensor chip with the immobilized MT2 and a blank sensor chip (unspecific binding). The peptide was injected into the sensor chip at a concentration of 1.7 μM. Analysis of binding was performed employing a BIAcoreX instrument (Biosensor AB, Uppsala, Sweden) at 25° C. using 10 mM pH 7.4 sodium phosphate containing 150 mM NaCl as running buffer (phosphate-buffered saline, PBS). The flow-rate was 5 μl/min. Data were analysed by non-linear curve-fitting using the manufacturer's software. The MT2 protein (from Sigma) was immobilized on a sensor chip CM5 using an amine coupling kit (Biosensor AB) as follows: the chip was activated by 20 μl activation solution; the protein was immobilized using 12 μl 20 μg/ml protein in 10 mM sodium phosphate buffer pH 6.0; the chip was blocked by 35 μl blocking solution. Various peptides at the indicated concentrations were injected into the sensor chip. The curve corresponding to the difference between binding to MT2 and a blank chip was used for analysis.

[3] = system: cerebellar granule neurons (CGN); test: Neuronal differentiation (neurite outgrowth) in primary CGN cultures; type: cell-based, rat; details: CGN grown 24 h in presence of peptide; FIGS. 1-5
Experimental: Primary cultures of cerebellar granule neurons (CGN) from seven days old rats were plated at a density of 10,000 cells/cm^2 in eight-well permanox chamber slides and left to differentiate for 24 hours in the presence of various concentrations of peptide. Cells were fixated and immuno-stained for GAP-43 to visualise only neurons. CGN cultures were fixed in 4% paraformaldehyde followed by blocking with 1% BSA and then incubateded with polyclonal rabbit antibodies against rat GAP-43 (Chemicon, AH Diagnostics, Aarhus, Denmark) (1:1000 dilution with 1% BSA) followed by incubation with secondary Alexa Fluor® 488 goat anti-rabbit antibodies (Molecular Probes, Eugene, Oreg., USA) (1:700 dilution with 1% BSA. Neurite length was estimated by means of a stereological approach (Rønn et al., 2000). Results are expressed as percentage neurite outgrowth±SEM, with the untreated controls set at 100%. Statistics are performed with a Student's paired t-test. *=p<0.05, **=p<0.01, ***=p<0.001. If not specifically indicated, four experiments were performed for each condition. 2.

[4] = system: cerebellar granule neurons (CGN); test: Cell survival assay, low-potassium induced apoptosis of CGN; type: cell-based, rat; details: apoptosis induced by 5 mM KCl medium, 48 h; FIGS. 6-9
Experimental: Primary CGN cultures from seven days old rats were plated at a density of 100,000 cells/cm^2 in eight-well permanox chamber slides coated with poly-D-Lysine and grown in a medium supplemented with 40 mM KCl. After 24 hours cytosine-β-D-arabinofuranoside was added to the culture to inhibit proliferation of non-neuronal cells. Neurons were left to differentiate for further 6 days in vitro, before apoptosis was induced by shifting cells into a starving medium containing either 5 mM KCl alone (negative control), 40 mM KCl (positive control) or 5 mM KCl plus various concentrations of peptide. 48 hours after apoptosis induction cells were fixated and stained with Hoechst 33258. Neuronal viability was estimated by comparing the amount of live neurons with the total number of neurons based on nuclear morphology. Results (see FIGS. 6-9) from at least four independent experiments are expressed as percentage survival±SEM, with the negative control set at 100%. Statistics are performed with a Student's paired t-test. *=p<0.05, **=p<0.01, ***=p<0.001. CGN from 7-day-old rats were induced to differentiate for 7 days in a medium with a high potassium concentration after which the neurons were grown for two days in a low potassium medium either in the absence or presence of IGF-1 (positive control), or the MT-derived peptides.

Substance	ka (MT2 protein (from Sigma))	kd (MT2 protein (from Sigma))	binding to MT2 protein immobilized on a sensor chip (MT2 protein (from Sigma))	neurite outgrowth / differentiation of cerebellar primary neurons [3]	neuronal survival of CGN [4]	further results
AQGSICKGASDKSS [MTAcc, tetrameric form used in vivo]	4.54 ± 0.21 × 10^3 M^−1 s^−1	4.00 ± 0.27 × 10^−4 s^−1	specifically bind	stimulated differentiation of cerebellar primary neurons	promoted survival of CGN in a dose dependent manner	number of apoptotic neurons (TUNEL positive cells, DNA fragmentation) [1]: strongly reduced the number of apoptotic neurons; number of apoptotic cells (TUNEL staining) ([2]; day -1, +1, +2, analysed 3 days after lesion): dramatic decrease of the number of apoptotic cell; inflammatory response to the lesion (IL-1, IL-12 and TNFα immunostaining) ([2]; 3 days after lesion): inhibition of the inflammatory response to the lesion; oxidative stress (NITT and MDA immunostaining) ([2]; 3 days after lesion): inhibition of oxidative stress; Kd (MT2 protein (from Sigma)): 89.5 nM
AQGSISKGASDKSS (listed as Homo sapiens) [MTAc]	–	–	–	stimulated differentiation of cerebellar primary neurons	promoted survival of CGN in a dose dependent manner	–
IGF-1: positive control in the CGN survival assay [reference compound]	–	–	–	–	could be prevented	–
KGGEAAEAEAEK (listed as Homo sapiens) [MT31p]	–	–	–	no neuritogenic activity	promoted survival of CGN in a dose dependent manner	–
KKSSCSCSPVGSAK [MTAn]	1.57 ± 0.05 × 10^4 M^−1 s^−1	5.74 ± 0.19 × 10^−3 s^−1	specifically bind	–	–	Kd (MT2 protein (from Sigma)): 367 nM
MDPNCSCAAGDSST (listed as Homo sapiens) [MTBnc]	–	–	–	stimulated differentiation of cerebellar primary neurons	promoted survival of CGN in a dose dependent manner	–
MDPNSSSAAGDSST (listed as Homo sapiens) [MTBn]	–	–	–	no neuritogenic activity	promoted survival of CGN in a dose dependent manner	–
SAGSCKCKESKSTS [MTBcc]	2.83 ± 0.93 × 10^3 M^−1 s^−1	5.01 ± 1.75 × 10^−4 s^−1	specifically bind	stimulated differentiation of cerebellar primary neurons	promoted survival of CGN in a dose dependent manner	number of apoptotic neurons (TUNEL positive cells, DNA fragmentation) [1]: strongly reduced the number of apoptotic neurons
SAGSSKSKESKSTS (listed as Homo sapiens) [MTBc]	–	–	–	stimulated differentiation of cerebellar primary neurons	promoted survival of CGN in a dose dependent manner	–
